Laboratory results: ChEMBL document CHEMBL3885861, “Open TG-GATES”

Organism: Rattus norvegicus
Experiment: Open TG-GATES - Regimen: Daily Repeat
Type: toxicity, organism-based, Sprague-Dawley
Set-up: regimen Daily Repeat, gender Male, age 6 weeks
Conditions: in vivo, po, route gavage; for gamma-GTP / ALP / ALT / AST / BUN / CRE / Ca / Cl / DBIL / GLC / IP / K / LDH / Na / PL / RALB / TBIL / TC / TG / TP: tissue Plasma; for APTT / Bas / Eos / Fbg / Hb / Ht / Lym / MCH / MCHC / MCV / Mono / Neu / PT / Plat / RBC / Ret / WBC: tissue Blood; for KIDNEY_L / KIDNEY_R / KIDNEY_TOTAL: tissue Kidney; for LIVER: tissue Liver
[1] = 300 mg/kg, 72 h, dose level Middle, time 3 day
[2] = 300 mg/kg, […], dose level Middle, time 7 day
[3] = 300 mg/kg, […], dose level Middle, time 14 day
[4] = 300 mg/kg, […], dose level Middle, time 28 day

With `COC(=O)C1=C(C)NC(C)=C(C(=O)OC)C1c1ccccc1[N+](=O)[O-]` [NIFEDIPINE] the gamma-GTP (100 mg/kg, […], dose level Low, time 28 day) was 1 IU/L, the TERMINAL_BW [1] was 223.2 g and the APTT [1] was 18.7 s. For the same molecule, the Bas [1] was 0.4%, the Eos [1] was 1% and the Fbg [1] was 277 mg/dL. It also gave a Hb [1] of 13.5 g/dL, a Ht [1] of 41.7% and a Lym [1] of 73%. It also gave an MCH [1] of 21.3 pg, an MCHC [1] of 32.3% and an MCV [1] of 66.1 fL. For the same molecule, the Mono [1] was 3.6%, the Neu [1] was 21% and the PT [1] was 13.8 s. It also gave a Plat [1] of 123.7 x10_4/uL, an RBC [1] of 630.8 x10_4/ul and a Ret [1] of 10.7%. The WBC [1] was 113.4 x10_2/uL, the KIDNEY_L [1] was 0.9 g and the KIDNEY_R [1] was 0.9 g. The KIDNEY_TOTAL [1] was 1.9 g, the LIVER [1] was 11.7 g and the ALP [1] was 1580.8 IU/L. The ALT [1] was 48.2 IU/L, the AST [1] was 68.4 IU/L and the BUN [1] was 14.2 mg/dL. It also gave a CRE [1] of 0.2 mg/dL, a Ca [1] of 10.9 mg/dL and a Cl [1] of 107.2 meq/L. The DBIL [1] was 0.018 mg/dL, the GLC [1] was 165.8 mg/dL and the IP [1] was 7.1 mg/dL. It also gave a K [1] of 4 meq/L, an LDH [1] of 84.2 IU/L and a Na [1] of 144.4 meq/L. It also gave a PL [1] of 159.2 mg/dL, an RALB [1] of 2.6 g/dL and a TBIL [1] of 0.03 mg/dL. It also gave a TC [1] of 89.4 mg/dL, a TG [1] of 94.2 mg/dL and a TP [1] of 5.6 g/dL. For the same molecule, the gamma-GTP [1] was 1 IU/L, the TERMINAL_BW [2] was 254 g and the TERMINAL_BW [3] was 319.9 g. For the same molecule, the TERMINAL_BW [4] was 380.8 g, the APTT [2] was 15.7 s and the Bas [2] was 0.2%. It also gave an Eos [2] of 1%, a Fbg [2] of 292.6 mg/dL and a Hb [2] of 13.9 g/dL. For the same molecule, the Ht [2] was 42.7%, the Lym [2] was 69.4% and the MCH [2] was 20.7 pg. For the same molecule, the MCHC [2] was 32.6%, the MCV [2] was 63.6 fL and the Mono [2] was 3%. It also gave a Neu [2] of 26%, a PT [2] of 13.6 s and a Plat [2] of 128.9 x10_4/uL. It also gave an RBC [2] of 671 x10_4/ul, a Ret [2] of 6.2% and a WBC [2] of 113.1 x10_2/uL. For the same molecule, the APTT [3] was 19 s, the Bas [3] was 0% and the Eos [3] was 1%. The Fbg [3] was 281.4 mg/dL, the Hb [3] was 14.8 g/dL and the Ht [3] was 44.7%. For the same molecule, the Lym [3] was 74.8%, the MCH [3] was 20.6 pg and the MCHC [3] was 33.2%. For the same molecule, the MCV [3] was 62.1 fL, the Mono [3] was 3% and the Neu [3] was 20%. For the same molecule, the PT [3] was 14 s, the Plat [3] was 117.6 x10_4/uL and the RBC [3] was 719 x10_4/ul. The Ret [3] was 4.9%, the WBC [3] was 97.5 x10_2/uL and the APTT [4] was 18.7 s. It also gave a Bas [4] of 0.4%, an Eos [4] of 1% and a Fbg [4] of 277 mg/dL. For the same molecule, the Hb [4] was 13.5 g/dL, the Ht [4] was 41.7% and the Lym [4] was 73%. It also gave an MCH [4] of 21.3 pg, an MCHC [4] of 32.3% and an MCV [4] of 66.1 fL. The Mono [4] was 3.6%, the Neu [4] was 21% and the PT [4] was 13.8 s. The Plat [4] was 123.7 x10_4/uL, the RBC [4] was 630.8 x10_4/ul and the Ret [4] was 10.7%. For the same molecule, the WBC [4] was 113.4 x10_2/uL, the KIDNEY_L [2] was 1 g and the KIDNEY_R [2] was 1 g. For the same molecule, the KIDNEY_TOTAL [2] was 2 g, the KIDNEY_L [3] was 1.2 g and the KIDNEY_R [3] was 1.2 g. The KIDNEY_TOTAL [3] was 2.3 g, the KIDNEY_L [4] was 1.3 g and the KIDNEY_R [4] was 1.2 g. The KIDNEY_TOTAL [4] was 2.5 g, the LIVER [2] was 12.8 g and the LIVER [3] was 14.9 g. The LIVER [4] was 15.8 g, the ALP [2] was 1439.4 IU/L and the ALT [2] was 43.8 IU/L. For the same molecule, the AST [2] was 68.6 IU/L, the BUN [2] was 15.4 mg/dL and the CRE [2] was 0.2 mg/dL. For the same molecule, the Ca [2] was 10.8 mg/dL, the Cl [2] was 107.6 meq/L and the DBIL [2] was 0.012 mg/dL. The GLC [2] was 167 mg/dL, the IP [2] was 7 mg/dL and the K [2] was 3.9 meq/L. It also gave a Na [2] of 145.6 meq/L, a PL [2] of 154.4 mg/dL and an RALB [2] of 2.8 g/dL. For the same molecule, the TBIL [2] was 0.022 mg/dL, the TC [2] was 83.4 mg/dL and the TG [2] was 102 mg/dL. It also gave a TP [2] of 5.9 g/dL, a gamma-GTP [2] of 1 IU/L and an ALP [3] of 1236.4 IU/L. It also gave an ALT [3] of 47.6 IU/L, an AST [3] of 69.4 IU/L and a BUN [3] of 18.2 mg/dL. For the same molecule, the CRE [3] was 0.2 mg/dL, the Ca [3] was 10.9 mg/dL and the Cl [3] was 107.6 meq/L. The DBIL [3] was 0.012 mg/dL, the GLC [3] was 172.6 mg/dL and the IP [3] was 7 mg/dL. For the same molecule, the K [3] was 4.2 meq/L, the LDH [3] was 48 IU/L and the Na [3] was 143.8 meq/L. For the same molecule, the PL [3] was 150 mg/dL, the RALB [3] was 2.7 g/dL and the TBIL [3] was 0.018 mg/dL. It also gave a TC [3] of 79.6 mg/dL, a TG [3] of 115.8 mg/dL and a TP [3] of 5.8 g/dL. For the same molecule, the gamma-GTP [3] was 1 IU/L, the ALP [4] was 1129.6 IU/L and the ALT [4] was 40 IU/L. The AST [4] was 73.8 IU/L, the BUN [4] was 17.8 mg/dL and the CRE [4] was 0.3 mg/dL. The Ca [4] was 10.3 mg/dL, the Cl [4] was 106.6 meq/L and the DBIL [4] was 0.012 mg/dL. It also gave a GLC [4] of 165 mg/dL, an IP [4] of 5.7 mg/dL and a K [4] of 3.8 meq/L. It also gave an LDH [4] of 56.2 IU/L, a Na [4] of 143.8 meq/L and a PL [4] of 146 mg/dL. For the same molecule, the RALB [4] was 2.7 g/dL, the TBIL [4] was 0.026 mg/dL and the TC [4] was 73 mg/dL. It also gave a TG [4] of 126.8 mg/dL.
